Test results published in patent publication US20180147206A1, “ACTIVATION OF NEURONAL STORE-OPERATED CALCIUM ENTRY PATHWAY FOR THE TREATMENT OF ALZHEIMER'S DISEASE” (The Board of Regents of the University of Texas System, priority 2015, published 2018).

Legend:
hippocampal LTP = assay: Hippocampal slice field recordings (LTP); assay type: cell-based, mouse; settings: pre-treatment 300 nM for 2-3 hours
Experimental: FIGS. 6A-E. NSN21778 rescues mushroom spine and synaptic plasticity defects in AD hippocampal slices. (FIG. 6A) Confocal images of CA1 hippocampal slices from 6 month-old WTGFP, PS1KIGFP, and APPKIGFP mice. The images are shown for untreated slices (CON) and for slices treated with 300 nM NSN21778 (+NSN) for 3.5 hrs prior to fixation. Scale bar is 10 μm. (FIG. 6B) The fraction of mushroom spines in hippocampal CA1 neurons from 6 month-old WTGFP, PS1KIGFP, and APPKIGFP mice. The results are shown for untreated slices (CON) and for slices treated with 300 nM NSN21778 (+NSN). The average fraction of mushroom spines for each group of cells is shown as mean±SE (n≥31 neurons). ***, p <0.001. (FIG. 6C) Sample fEPSP traces are shown for 6 month-old WT and APPKI hippocampal slices prior to stimulation (basal), immediately after tetanus stimulation (induction) and 1 h after tetanus stimulation (after 1 hr). The results are shown for untreated slices and for slices pre-treated with 300 nM NSN21778 (+NSN) for 2-3 hours prior to tetanus stimulation. […]
Hippocampal slice field recordings. […] Field potentials (FPs) were recorded with extracellular recording electrodes (1 MΩ) filled with ACSF and placed in stratum radiatum of area CA1. […] The initial slope of the FPs was used to measure stability of synaptic responses and quantify the magnitude of LTP. […]

TRPC6 = target: T1, TRPC6 (Homo sapiens, UniProt Q9Y210); assay: Fura-2 Ca2+ imaging in TRPC6-transfected HEK293 cells; assay type: cell-based; settings: for potentiation of OAG-induced responses: preincubation 1 μM, 100 μM OAG
T1 construct: expressed in transfected cells; host or cells: HEK293
T1 sequence (Q9Y210 1-931): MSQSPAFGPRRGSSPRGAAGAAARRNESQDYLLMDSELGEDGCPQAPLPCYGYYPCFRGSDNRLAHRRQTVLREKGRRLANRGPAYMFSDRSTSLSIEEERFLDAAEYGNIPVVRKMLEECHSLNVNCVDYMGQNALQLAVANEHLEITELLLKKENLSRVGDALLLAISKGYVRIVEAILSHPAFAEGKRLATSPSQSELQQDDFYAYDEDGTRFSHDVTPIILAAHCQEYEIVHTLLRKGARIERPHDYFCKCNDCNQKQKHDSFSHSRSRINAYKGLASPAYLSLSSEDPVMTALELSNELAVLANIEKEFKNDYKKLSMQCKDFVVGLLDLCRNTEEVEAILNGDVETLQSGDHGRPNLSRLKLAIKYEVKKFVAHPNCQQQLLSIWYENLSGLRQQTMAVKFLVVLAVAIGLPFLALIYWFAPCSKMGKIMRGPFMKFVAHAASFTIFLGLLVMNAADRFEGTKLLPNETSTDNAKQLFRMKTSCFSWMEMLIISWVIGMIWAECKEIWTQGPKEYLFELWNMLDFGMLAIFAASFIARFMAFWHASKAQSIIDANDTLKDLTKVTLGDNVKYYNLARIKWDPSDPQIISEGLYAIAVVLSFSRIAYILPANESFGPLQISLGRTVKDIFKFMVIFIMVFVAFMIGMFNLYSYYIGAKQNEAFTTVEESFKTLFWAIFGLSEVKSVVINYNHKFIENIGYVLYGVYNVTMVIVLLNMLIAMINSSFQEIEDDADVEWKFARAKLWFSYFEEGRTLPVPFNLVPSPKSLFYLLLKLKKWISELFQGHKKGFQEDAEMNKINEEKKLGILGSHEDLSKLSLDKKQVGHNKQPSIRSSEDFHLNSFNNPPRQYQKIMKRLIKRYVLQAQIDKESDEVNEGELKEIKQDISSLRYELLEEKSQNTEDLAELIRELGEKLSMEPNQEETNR

APPKIGFP and WTGFP mice = assay: Contextual fear conditioning test; assay type: in vivo, mouse; settings: i.p. 10 mg/kg

## CC(=O)Nc1ccc(CCNc2ncnc3ccc(N)cc23)cc1 [NSN21778, N-{4-[2-(6-Amino-quinazolin-4-ylamino)-ethyl]-phenyl}-acetamide]
Hippocampal LTP; APPKI slices, 6 month-old
  LTP defect: completely rescued
Hippocampal LTP; wild-type slices
  LTP: no significant effect
TRPC6; GFP or TRPC6 HEK293 cells preincubated in Ca2+-free media with 1 μM Tg (data not shown)
  SOC in conditions of store depletion: no additional effect
TRPC6; TRPC6-transfected HEK293 cells, 1 μM, 2 mM Ca2+
  Ca2+ influx: did not trigger Ca^2+ influx
TRPC6; TRPC6-transfected cells, stores partially depleted (0.1 mM Ca2+)
  potentiation of OAG-induced responses: significant potentiation
TRPC6; control GFP cells, stores partially depleted
  potentiation of OAG-induced responses: not in control GFP cells
i.p. 10 mg/kg 3 times per week, WTGFP, PS1KIGFP and APPKIGFP mice
  toxicity in injected mice: not observed any obvious toxicity
i.p. 10 mg/kg, following 10 weeks treatment
  body weight: some weight loss
APPKIGFP and WTGFP mice; 6.5 month-old APPKIGFP mice
  contextual fear conditioning phenotype: fully rescued
APPKIGFP and WTGFP mice; WTGFP mice, difference to control not statistically significant
  contextual fear conditioning responses: somewhat impaired responses
